Measured values reported in ChEMBL document CHEMBL1201862, “PubChem BioAssay data set” (2004).
Activity calls are given as the source filed them.

Legend:
[1] = biological target: E3 ubiquitin-protein ligase Mdm2 (Homo sapiens, UniProt Q00987); test: enhancers of MDM2-luciferase reporter signal, concentration-effect titration, project on inhibitors of MDM2 ubiquitin ligase, cellular assay, luminescent readout, 384-well plate format (AID 1394); assay type: functional;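 further: MDM2 E3 inhibitors raise luminescence so EC50 is for signal enhancement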
[2] = biological target: Major prion protein (Homo sapiens, UniProt P04156); assay type: functional, cell-based
[3] = biological target: Mitogen-activated protein kinase 10 (Homo sapiens, UniProt P53779); test: Dose response biochemical screening assay for inhibitors of c-Jun N-Terminal Kinase 3 (JNK3). [Related pubchem assays: 746 ]
[4] = cells
[5] = tested on: H9c2; test: cells; assay type: functional, cell-based; details: Rattus norvegicus, H9c2, Myocardium;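 further: confirmatory concentration-response retest of ultra-high-throughput screening hits for modulation of myocardial damage; cell death induced by hydrogen peroxide oxidative stress; compound pretreatment for 60 min then peroxide exposure for 2 h; potency is for protecting the cells against peroxide damage rather than for killing them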
[6] = P. falciparum late gametocyte killing, dose response, luminescence (AID 1117278); assay type: functional, cell-based;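 further: gametocytes exposed to compound for 24 hours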
[7] = Jurkat T cell cytotoxicity, dose response, cytotoxicity control for P. falciparum gametocyte viability project, luminescence (AID 1117277); assay type: functional, cell-based;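 further: potency reflects loss of cellular ATP meaning fewer viable cells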
[8] = biological target: T1, Aminopeptidase N (Plasmodium falciparum FcB1/Columbia, UniProt O96935); test: P. falciparum M1AAP inhibitors, biochemical, fluorogenic H-Leu-NHMec substrate, 1536-well (AID 1445); parameters: species or system Plasmodium falciparum 3D7, 3D7
T1 sequence (O96935 whole entry): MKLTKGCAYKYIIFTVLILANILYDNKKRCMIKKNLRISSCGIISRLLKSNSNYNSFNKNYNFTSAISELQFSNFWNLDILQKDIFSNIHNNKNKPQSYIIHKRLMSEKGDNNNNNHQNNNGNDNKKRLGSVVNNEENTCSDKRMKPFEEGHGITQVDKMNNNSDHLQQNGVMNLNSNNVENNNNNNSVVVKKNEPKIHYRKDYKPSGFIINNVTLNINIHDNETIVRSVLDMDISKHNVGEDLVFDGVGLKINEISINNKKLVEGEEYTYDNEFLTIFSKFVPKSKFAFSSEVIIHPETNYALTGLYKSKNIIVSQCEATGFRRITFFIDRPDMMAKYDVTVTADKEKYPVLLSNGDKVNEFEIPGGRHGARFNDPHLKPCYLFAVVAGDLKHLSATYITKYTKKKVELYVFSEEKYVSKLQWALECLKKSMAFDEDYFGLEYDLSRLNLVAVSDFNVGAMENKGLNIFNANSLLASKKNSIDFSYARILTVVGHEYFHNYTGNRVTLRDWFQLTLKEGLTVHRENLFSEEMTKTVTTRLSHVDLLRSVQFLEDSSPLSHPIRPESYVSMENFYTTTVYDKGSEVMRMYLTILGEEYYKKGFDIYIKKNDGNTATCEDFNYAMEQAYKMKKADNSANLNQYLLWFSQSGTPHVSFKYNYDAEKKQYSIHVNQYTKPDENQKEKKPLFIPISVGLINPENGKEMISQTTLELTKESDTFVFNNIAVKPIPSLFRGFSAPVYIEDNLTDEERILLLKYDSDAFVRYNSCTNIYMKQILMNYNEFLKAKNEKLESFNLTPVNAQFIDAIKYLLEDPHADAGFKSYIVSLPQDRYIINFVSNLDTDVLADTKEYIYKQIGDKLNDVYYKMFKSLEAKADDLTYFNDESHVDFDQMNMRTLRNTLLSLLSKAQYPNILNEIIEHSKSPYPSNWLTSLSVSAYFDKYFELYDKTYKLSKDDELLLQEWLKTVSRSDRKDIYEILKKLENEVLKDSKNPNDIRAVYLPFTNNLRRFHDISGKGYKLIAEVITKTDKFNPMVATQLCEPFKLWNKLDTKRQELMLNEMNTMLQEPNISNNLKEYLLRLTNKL

[9] = biological target: T2, Cysteine protease ATG4B (Homo sapiens, UniProt Q9Y4P1); assay type: functional;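 further: Fluorescence-based dose-response confirmation assay measuring inhibition of ATG4B activity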
T2 sequence (Q9Y4P1 whole entry): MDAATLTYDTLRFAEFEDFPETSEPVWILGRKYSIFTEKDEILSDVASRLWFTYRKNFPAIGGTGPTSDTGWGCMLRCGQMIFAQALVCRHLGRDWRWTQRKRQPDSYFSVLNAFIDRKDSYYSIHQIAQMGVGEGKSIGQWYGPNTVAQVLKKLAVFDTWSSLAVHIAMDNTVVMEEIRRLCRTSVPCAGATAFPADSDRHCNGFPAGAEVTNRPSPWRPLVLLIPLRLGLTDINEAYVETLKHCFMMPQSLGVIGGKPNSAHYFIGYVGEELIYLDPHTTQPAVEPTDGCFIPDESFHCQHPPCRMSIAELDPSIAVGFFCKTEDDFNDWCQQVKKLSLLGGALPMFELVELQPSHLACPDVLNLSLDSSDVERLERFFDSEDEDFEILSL

[10] = biological target: Bifunctional protein GlmU (Mycobacterium tuberculosis, UniProt P9WMN3); test: Inhibitors of Mycobacterial Glucosamine-1-phosphate acetyl transferase (GlmU). Secondary screen.; parameters: species or system Mycobacterium tuberculosis H37Rv
[11] = biological target: Phospholipase A2 (Homo sapiens, UniProt P04054); assay type: functional;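 further: confirmatory dose-response counterscreen on phospholipase A2, testing hits that came from an ultra-high-throughput screen for ATG4B inhibitors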
[12] = biological target: T3, Zinc finger protein mex-5 (Caenorhabditis elegans, UniProt Q9XUB2); test: MEX-5/TCR-2 RNA interaction inhibitors, dose response, biochemical, C. elegans, fluorescence polarization (AID 1960)
T3 sequence (Q9XUB2 whole entry): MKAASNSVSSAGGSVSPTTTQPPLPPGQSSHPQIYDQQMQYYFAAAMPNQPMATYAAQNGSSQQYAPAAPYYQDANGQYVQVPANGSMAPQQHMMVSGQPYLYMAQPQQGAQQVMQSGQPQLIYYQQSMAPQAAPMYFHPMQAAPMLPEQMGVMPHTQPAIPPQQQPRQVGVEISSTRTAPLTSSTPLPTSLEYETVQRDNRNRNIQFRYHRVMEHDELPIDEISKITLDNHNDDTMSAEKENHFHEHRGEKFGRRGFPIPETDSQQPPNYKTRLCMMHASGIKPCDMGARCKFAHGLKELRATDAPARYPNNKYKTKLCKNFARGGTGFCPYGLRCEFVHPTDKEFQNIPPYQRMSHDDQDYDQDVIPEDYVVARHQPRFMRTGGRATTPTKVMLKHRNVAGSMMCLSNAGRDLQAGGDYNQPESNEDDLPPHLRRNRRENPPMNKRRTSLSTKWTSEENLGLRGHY

[13] = biological target: DNA (cytosine-5)-methyltransferase 1 (Homo sapiens, UniProt P26358); test: DNMT1 methyltransferase inhibitors, confirmation, biochemical, fluorescent molecular beacon (AID 602386); assay type: functional
[14] = biological target: T4, RNA-binding protein pos-1 (Caenorhabditis elegans, UniProt G5EF15); test: inhibitors of POS-1/mex-3 RNA binding, dose response, biochemical, fluorescence polarization (AID 1964);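 further: purified POS-1 fused to maltose binding protein made in E. coli; potency of compounds blocking POS-1 binding to fluorescent RNA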
T4 sequence (G5EF15 whole entry): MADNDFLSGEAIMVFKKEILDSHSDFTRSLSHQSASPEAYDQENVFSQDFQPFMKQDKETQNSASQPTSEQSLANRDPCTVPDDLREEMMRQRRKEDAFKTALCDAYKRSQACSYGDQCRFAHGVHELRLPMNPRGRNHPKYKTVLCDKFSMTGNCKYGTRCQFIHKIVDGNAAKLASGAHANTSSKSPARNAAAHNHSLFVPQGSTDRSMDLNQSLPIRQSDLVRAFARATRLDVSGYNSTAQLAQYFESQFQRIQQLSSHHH

[15] = biological target: Heat shock protein HSP 90-alpha (Homo sapiens, UniProt P07900); test: Luminescence-based dose response biochemical high throughput screening assay for inhibitors of the Heat Shock Protein 90 (HSP90). [Related pubchem assays: 1831 (Summary AID.), 1846 (Confirmation screen.), 1789 (Primary screen.)]

Which EC50 [1] does the source give for `Cc1nc(CSc2nsc(/C=C/N(C)C)c2C#N)cs1` here?
Its EC50 is 19.8 µM (not active).

What does the source list for `Brc1ccc(-c2nn3c(-c4ccco4)nnc3s2)o1`?
IC50 [2]: 4.14 µM (active); IC50 [3]: 58 µM (not active); IC50 [4]: > 138 µM (inactive); IC50 [5]: > 79 µM (inactive)

What does the source list for `CC(C)c1nc2oc3c(O)ncnc3c2c2c1CCC2`?
IC50 [6]: > 109 µM (inactive); IC50 [7]: > 83.3 µM (inactive)

Which IC50 [8] does the source give for `O=C(O)c1ccc(-c2ccc(/C=C3\NC(=O)N(Cc4ccc(Cl)cc4)C3=O)o2)cc1Cl` here?
The IC50 was 40.8 µM (active).

What about the IC50 [9] of the same molecule?
Its IC50 is 16.2 µM (active).

What about the IC50 [10] of the same molecule?
Its IC50 is 67.1 µM (active).

And the IC50 [11]?
Its IC50 is 16.1 µM (active).

And the EC50 [12]?
Its EC50 is 23.5 µM (active).

And the IC50 [13]?
Its IC50 is 4.54 µM (active).

And the EC50 [14]?
Its EC50 is 29.4 µM (active).

Which IC50 [6] does the source give for `COc1ccc(-c2[nH]ncc2-c2csc(C)n2)c(O)c1` here?
Its IC50 is > 109 µM (inactive).

What about the IC50 [7] of the same molecule?
The IC50 was > 83.3 µM (inactive).

With `CCOC(=O)c1csc(NC(=O)c2cc3ccccc3o2)n1` as the molecule, how does the IC50 [15] read?
Its IC50 is 0.784 µM (active).
